In article PMC11423305, “Structure-Based Design of CBP/EP300 Degraders: When Cooperativity Overcomes Affinity” (JACS Au, 2024):

Molecular target: T1, BRD4 (Homo sapiens, UniProt O60885)
T1 construct: Western blot masurement of BRD4 levels in LP1 cells treated for 16 h with; endogenous in cells; host or cells: LP1 and MM1S cells
Experiment: Global proteomics / Western blot of BRD4 level
Assay type: cell-based
Conditions: LP1 and MM1S cells, 16 h, 1 μM; verified by Western blot
Procedure: cooperativity factor (α) was defined as the ratio of the IC50 values in the absence and […]
For the ternary complex experiments, the final assay composition was: 0.1 % DMSO, 5 nM GST-CBP, 5 nM CRBN-Avi(biotin), 100 mM KF, 0.625 nM XL665-Streptavidin conjugate and 0.8 nM anti-GST mAb – Eu3+-cryptate. The maximal control contained 40 nM dCBP-1, the blank contained no PROTAC. Hook curves were generated by normalization to the maximal control.
LP1 cells were cultured in DMEM (Gibco, 41966-029) supplemented with 15 % FBS (Sigma, F9665); MM1S and LNCaP cells in RPMI 1640 ATCC modification (Gibco, […]
DMEM/F12 (Gibco, 11320074) supplemented with 1 % non-essential amino acids […]
Quantification of CBP/EP300 degradation by Western blotting
LP1 cells plated on 6 well plates were treated with the stated compounds at a final concentration of 0.1 % DMSO for the stated time. […] Protein concentrations were determined using the Pierce ™ BCA Protein Assay Kit (Thermo Scientific, 23227) and equal amounts were separated on 4-12 % ExpressPl us™ PAGE gels (GenScript, M41215). […]
SuperSignal™ West Pico PLUS Chemiluminescent Substrate (Thermo Scientific, 34580) and the Vilber Fusion-FX7 imager. Bands were quantified using ImageJ software and protein levels normalized to protein from DMSO treated cells run on the same membrane. […]

level of BRD4: not changed
Compound: Cc1cc2c(NC(=O)c3cc(NC(=O)CCCCCCCCCCNc4cccc5c4C(=O)N(C4CCC(=O)NC4=O)C5=O)cc(-c4ccn(C)n4)c3)cccc2nn1 (stereo not shown) [dCE-2]
